Where two headings read alike, the source gives them in different places. Blank lines part the entries; values can stand above or below the molecule they belong to. Where a SMILES comes first, the peptide text is derived from it. Where no end group is shown, it is not given here.
Tests used:
[1] = biological target: ERBIN PDZ domain (Homo sapiens, UniProt Q96RT1); assay: Competition ELISA, ERBIN PDZ-GST binding to immobilized biotinylated peptide; set-up: made in house; host or cells: E. coli
Method: Binding affinities of the peptides for the ERBIN PDZ domain were determined as IC50 values using competition ELISAs. […] Assay plates were prepared by coating Maxisorp plates overnight at 4° C. with 65 μl of a 2 μg/ml solution of neutravidin in PBS. The plates were then blocked through addition of 65 μl of a 1% solution of bovine serum albumin (BSA) in PBS for 1 hour at room temperature, then washed 10 times with PBS containing 0.05% Tween-20. 65 μl of the amino-terminally biotinylated peptide PDZ 501 (TGWETWV; SEQ ID NO:222) was then added at a concentration of 100 nM in PBS with 0.5% BSA and 0.05% Tween-20 and incubated for 1 hour at room temperature. Simultaneously, binding reactions consisting of serial dilutions of the test compounds in PBS with 0.5% BSA and 0.05% Tween-20 containing 2 μg/ml ERBIN PDZ-GST fusion protein were incubated for 1 hour at room temperature. The plate coated with the immobilized peptide was again washed 10 times before 65 μl of each binding reaction was added to a well and incubated for 15 minutes at room temperature. The plates were again washed 10 times before being developed by incubating for 30 minutes with a 1:1000 dilution of anti-mouse HRP conjugated antibody and a 1:2000 dilution of a mouse anti-GST antibody in PBS with 0.5% BSA and 0.05% Tween-20. The plates were washed 10 times, then incubated with 100 μl HRP substrate for 5 minutes and the color developed through addition of 100 μl of 1 M H3PO4. The plates were read at 450 nm and the absorption fit to a binding curve using a least squares fit.
Binding affinities of the peptides for the ERBIN PDZ domain were determined as IC50 values using competition ELISAs. […] Assay plates were prepared by coating microwell plates overnight with neutravidin. The plates were then blocked through addition of BSA, and then amino-terminally biotinylated WETWV (SEQ ID NO:225) was then bound to the plates. Simultaneously, binding reactions consisting of serial dilutions of the test peptides with ERBIN PDZ-GST fusion proteins were performed. The plate coated with the immobilized WETWV (SEQ ID NO:225) was extensively washed before adding each binding reaction to the wells and briefly incubated. After further washing, anti-mouse HRP conjugated antibody and a mouse anti-GST antibody were added. The plates were then developed with HRP substrate and H3PO4, and then read at 450 nm. The absorption fit to a binding curve using a least squares fit. Thus the ability of the various peptides to inhibit ERBIN PDZ domain from binding its cognate was measured. […]

[2] = biological target: T1, hZO1 PDZ1 (Homo sapiens, UniProt Q07157); assay: IC50 (nM) | hZO1 PDZ1 | 5 nM | B01-88 | Bio-GGWRWTTWL (SEQ ID NO 684) | 36 nM
T1 construct: Human ZO1 (NM_003257) PDZ1; GST; made in house
T1 sequence (Q07157 23-110): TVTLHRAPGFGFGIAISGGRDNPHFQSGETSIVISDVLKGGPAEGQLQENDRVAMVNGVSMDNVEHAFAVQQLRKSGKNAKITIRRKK
Method: (§1) Table printed on a drawing sheet, Fig. 12
Head of the field: IC50 (nM) | hZO1 PDZ1 | 5 nM | B01-88 | Bio-GGWRWTTWL (SEQ ID NO 684) | 36 nM
(§2) The patent's description of the figure: FIG. 12. IC50 values indicating binding affinities of various peptides to PDZ domains
(§3) First copying reader's note: The first column (three lines per block: protein, accession, PDZ domain) is treated as one cell spanning its block; an empty ruled row above the IC50/SD head is left out; #### cells are spreadsheet overflow marks as printed; several heads and cells are cut off at the left by the print (ample, eptide No, EQ ID NO).
Where the first naming reader finds the target: head: IC50 (nM) | hZO1 PDZ1 | 5 nM | B01-88

[3] = biological target: T2, Erbin PDZ (Homo sapiens, UniProt Q96RT1); assay: IC50 (nM) | Erbin PDZ | 2 nM | PDZ501 | Bio-Ac-GGWETWV (SEQ ID NO 687) | 37 nM
T2 construct: made in house; host or cells: E. coli
T2 sequence (Q96RT1 1258-1412): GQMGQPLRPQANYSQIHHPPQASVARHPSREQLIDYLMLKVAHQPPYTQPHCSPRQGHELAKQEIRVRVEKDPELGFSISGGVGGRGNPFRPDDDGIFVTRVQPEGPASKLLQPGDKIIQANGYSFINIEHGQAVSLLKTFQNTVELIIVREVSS
Method: as §1, §2, §3
Where the first naming reader finds the target: head: IC50 (nM) | Erbin PDZ | 2 nM | PDZ501

[4] = biological target: ERBIN PDZ-GST fusion protein (aa. 1217-1371 of SEQ ID NO:201) (human) [GST: P08515]; assay: competition ELISA: ERBIN PDZ-GST binding to immobilized biotin-WETWV
ERBIN PDZ-GST fusion protein (aa. 1217-1371 of SEQ ID NO:201) (human) [GST: P08515], sequence (P08515 whole entry, the tested form may be a part): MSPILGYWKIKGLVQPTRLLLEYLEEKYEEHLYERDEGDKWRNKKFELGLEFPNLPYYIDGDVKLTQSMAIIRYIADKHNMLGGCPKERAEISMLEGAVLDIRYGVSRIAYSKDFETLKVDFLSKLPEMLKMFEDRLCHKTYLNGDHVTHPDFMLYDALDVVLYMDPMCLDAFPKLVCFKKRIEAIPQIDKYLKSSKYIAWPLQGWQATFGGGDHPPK

[5] = biological target: ERBIN PDZ-GST fusion protein (aa. 1217-1371 of SEQ ID NO:201) (human, UniProt P08515 1-218 = GST); assay: as above
ERBIN PDZ-GST fusion protein (aa. 1217-1371 of SEQ ID NO:201), sequence (P08515 whole entry, the tested form may be a part): as above

[6] = Small molecules that inhibit ERBIN PDZ domain from binding immobilized WETWV, read-out: IC50
[7] = ERBIN peptide truncations with N-terminal acylation
[8] = ERBIN peptide truncations with N-terminal acylation, read-out: IC50
[9] = ERBIN peptide truncations without N-terminal acylation
[10] = Substitutions for threonine at the −2 position and glutamate at the −3 position

ERBIN PDZ domain, sequence (Q96RT1 1258-1412): as the sequence (Q96RT1 1258-1412) above

Molecule: CC(=O)N[C@@H](Cc1c[nH]c2ccccc12)C(=O)N[C@H](C(=O)O)C(C)C [Ac-WV] (Ac-Trp-Val-OH; C-terminus assumed)
fold less potent than Ac-GWETWV [1, 7]: 78.7 fold
IC50 [1, 8]: 77.8 µM

Molecule: H-GWETWV [H1N-GWETWV]
IC50 [1]: 1.4 µM
fold less potent than H1N -GWETWV [1, 9]: 1.0 fold

Molecule: Ac-YRLNDYV [18 | 01-98, SEQ ID NO 657 N^AC-YRLNDYV]
IC50 [2]: 28600 nM

Molecule: H-WETWV [H1N -WETWV]
IC50 [1]: 0.2 µM
fold less potent than H1N -GWETWV [1, 9]: 0.2 fold

Molecule: Ac-FETWL [3 | 01-08, SEQ ID NO 642 N^AC-FETWL]
IC50 [3]: 3160 nM

Molecule: Ac-GWETWV [Ac-GWETWV]
IC50 [1]: 0.9 µM
fold less potent than Ac-GWETWV [1, 7]: 1.0 fold

Molecule: CC(C)C(NC(=O)C(Cc1cc2ccccc2[nH]1)NC(=O)c1cnc2ccccc2n1)C(=O)O (stereo not drawn) [WV 46]
IC50 [1, 6]: 334 µM

Molecule: CC(C)C(NC(=O)C(Cc1cc2ccccc2[nH]1)NC(=O)c1ccc(-c2ccc([N+](=O)[O-])cc2)o1)C(=O)O (stereo not drawn) [WV 58]
IC50 [1, 6]: 697 µM

Molecule: Ac-WETWV [Ac-WETWV]
IC50 [1]: 0.5 µM
fold less potent than Ac-WETWV (SEQ ID NO:225) ([1]; Alanine scanning of WETWV peptide): 1 fold
fold less potent than Ac-GWETWV [1, 7]: 0.5 fold
fold less potent than Ac-WETWV [1, 10]: 1 fold
fold less potent than Ac-WETWV ([1]; Substitutions for tryptophan at the −1 position): 1 fold

Molecule: Ac-WELLI [38 | 01-21, SEQ ID NO 677 NAC-WELLI]
IC50 [2]: 20100 nM

Molecule: Ac-WDTWV [Ac-WDTWV]
IC50 [1]: 1.7 µM
fold less potent than Ac-WETWV [1, 10]: 3.4 fold

Molecule: H-GWETWV-OH [H1N-GWETWV]
IC50 [4]: 1.4 µM
fold less potent than H1N -GWETWV [4]: 1 fold

Molecule: Ac-AETWV [Ac-AETWV]
IC50 [5]: 4 µM
fold less potent than Ac-WETWV [5]: 8.2 fold

Molecule: H-WETWV-OH [H1N -WETWV]
IC50 [4]: 0.2 µM
fold less potent than H1N -GWETWV [4]: 0.2 fold

Molecule: Ac-GWETWV [Ac-GWETWV]
IC50 [4]: 0.9 µM
fold less potent than Ac-GWETWV [4]: 1 fold

More lines, now with the values ahead:

IC50 [1, 6]: 304 µM
Molecule: CC(C)C(NC(=O)C(Cc1cc2ccccc2[nH]1)NC(=O)C1CCc2ccccc2C1)C(=O)O (stereo not drawn) [WV 38]

IC50 [2]: 2320 nM
Molecule: Ac-KITWL [25 | 01-06, SEQ ID NO 664 N^AC-KITWL]

IC50 [2]: 12600 nM
IC50 [3]: 19800 nM
Molecule: Ac-KETWL [20 | 01-05, SEQ ID NO 659 N^AC-KETWL]

fold less potent than H1N -GWETWV [1, 9]: 73.6 fold
IC50 ([1]; ERBIN peptide truncations without N-terminal acylation, read-out: IC50): 105 µM
Molecule: CC(C)[C@H](NC(=O)[C@H](Cc1c[nH]c2ccccc12)NC(=O)[C@@H](N)[C@@H](C)O)C(=O)O [H1N -TWV] (H-Thr-Trp-Val-OH; C-terminus assumed)

IC50 [2]: 12400 nM
Molecule: Ac-YSLTGYV [15 | 01-94, SEQ ID NO 654 N^AC-YSLTGYV]

fold less potent than Ac-GWETWV [1, 7]: 5.1 fold
IC50 [1, 8]: 4.9 µM
Molecule: CC(=O)N[C@@H](CCC(=O)O)C(=O)N[C@H](C(=O)N[C@@H](Cc1c[nH]c2ccccc12)C(=O)N[C@H](C(=O)O)C(C)C)[C@@H](C)O [Ac-ETWV] (Ac-ETWV-OH; C-terminus assumed)

IC50 [4]: 4.9 µM
fold less potent than Ac-GWETWV [4]: 5.1 fold
Molecule: Ac-ETWV [Ac-ETWV]

IC50 [5]: 12.4 µM
fold less potent than Ac-WETWV [5]: 25.3 fold
Molecule: Ac-WEAWV [Ac-WEAWV]

IC50 [4]: 0.5 µM
fold less potent than Ac-GWETWV [4]: 0.5 fold
fold less potent than Ac-WETWV [4]: 1 fold
Molecule: Ac-WETWV [Ac-WETWV]

IC50 [5]: 14.8 µM
fold less potent than Ac-WETWV [5]: 30.3 fold
Molecule: Ac-WATWV [Ac-WATWV]

IC50 [4]: 16.5 µM
fold less potent than H1N -GWETWV [4]: 11.5 fold
Molecule: H-ETWV-OH [H1N -ETWV]
